Assay results from US8426369B2, “Prevention and treatment of colon cancer” (Rutgers, The State University of New Jersey, priority 2006, dated 2013).
Where two headings read alike, the source gives them in different places.

Assays:
TNF-α mRNA = experiment: Quantitative RT-PCR of cytokine-induced TNF-α mRNA in HT-29 cells; assay type: cell-based, human
Experimental: The cell culture conditions and the reagents used in this example were described in Example 32. The gene-mediated expression of iNOS and COX-2 are reported to be regulated at both the transcriptional and translational levels. In order to understand the effect of pterostilbene on cytokine-induced expression of proinflammatory enzymes and cytokines, RNA samples after treatment of HT-29 cells with cytokines and/or pterostilbene were analyzed by quantitative RT-PCR for the induction of mRNA levels of iNOS, COX-2, IL-1β, IFN-γ and TNF-α genes.
To determine the changes of mRNA levels by pterostilbene and cytokines, quantitative RT-PCR analysis was utilized, as described previously (Lee et al., Mol Pharmacol 2006; 69(6):1840-1848). Briefly, the cells were incubated with compounds for indicated period and the cells were then lysed using Trizol to extract RNA. RNA was reverse transcribed into cDNA using a high capacity cDNA archive kit (Applied Biosystems, Foster City, Calif.). The cDNA was used for quantitative PCR which was run on the ABI Prism […] sequence Detection System. The primers for the iNOS, COX-2, IFN-γ, TNF-α, IL-1β and GAPDH were obtained from Applied Biosystems (Foster City, Calif.).

[1] = Body weight / overt toxicity during the ACF feeding study; assay type: in vivo; conditions: 40 ppm in diet
Experimental: (§1) Beginning at 5 weeks of age, all rats were fed the modified American Institute of Nutrition-76A (AIN-76A) diet. At 7 weeks of age, the animals were given s.c. injections of azoxymethane (AOM) (CAS no. 25843-45-2, Ash Stevens, Detroit, Mich.) once weekly for 2 weeks at a dose rate of 15 mg/kg body weight. One day after the second AOM injection, groups of animals (n=9 per group) were maintained on AIN-76A diet alone and AIN-76A diet containing 40 ppm pterostilbene. […] See, e.g., U.S. Application Publication No. US 2006-0057231 A1.
(§2) On the average, the animal consumed about 0.6 mg pterostilbene per day. All rats were weighed once weekly until termination of the study at 8 weeks after the second AOM treatment were sacrificed by CO2 asphyxiation. After laparotomy, the entire stomach, small intestine, and large intestine were resected. The organs were opened longitudinally, and the contents were flushed with normal saline.

ERK1/2 = experiment: Western blot of phosphorylated ERK1/2 in cytokine-treated HT-29 cells; assay type: cell-based, human
Experimental: (§3) The cell culture conditions and the reagents used in this example were described in Example 32. Whole cell extracts were collected after the various treatments and analyzed by western blotting. The protein samples were separated on 4-15% SDS-PAGE gels (Biorad, Hercules, Calif.) followed by transfer to a polyvinylidene fluoride membrane. The membranes were blocked with 5% milk in Tris buffer for 1 h and then incubated with the appropriate primary antibody solutions overnight at 4° C. The membranes were washed with Tris buffer, and incubated with horseradish peroxidase conjugated secondary antibody solutions for 1 h at room temperature.
(§4) The protein bands were visualized using a chemiluminescence based kit from Amersham Biosciences (Buckinghamshire, UK). The primary antibodies against iNOS, COX-2, IκBα, cyclin D1, c-myc (Santa Cruz Bio-technology, Santa Cruz, Calif.), phospho-STAT3, phospho-Erk1/2, phospho-JNK1/2, phospho-p38, phospho-Akt, phospho-ATF2, phospho-Elk1, PARP (Cell Signaling Technology Inc., Beverly, Mass.) and actin (Sigma, St. Louis, Mo.) and secondary antibodies (Santa Cruz Biotechnology, Santa Cruz, Calif.) were used for probing the abundance of the target protein in the samples.

p38 = experiment: Western blot of phosphorylated p38 in cytokine-treated HT-29 cells; assay type: cell-based, human
Experimental: as §3, §4

cyclin D1 = experiment: Western blot of cyclin D1 in HT-29 cells; assay type: cell-based, human; conditions: 9 h or 18 h, especially at 9 h
Experimental: The cells were incubated with different concentrations of pterostilbene for 1, 2 and 3 days, and cell proliferation was estimated by measuring [^3H]thymidine incorporated into DNA. […] In order to evaluate whether pterostilbene potentiates cell cycle arrest or apoptosis in HT-29 cells, the effect of pterostilbene on the proteins regulating the cell cycle and/or apoptosis pathways was examined. Cells treated with pterostilbene for 9 h or 18 h were harvested and protein samples were analyzed by Western blotting (FIG. 8B).
as §3
The protein bands were visualized using a chemiluminescence based kit from Amersham Biosciences (Buckinghamshire, UK). […]

[2] = tested on: azoxymethane-induced aberrant crypt foci (ACF); experiment: Azoxymethane-induced aberrant crypt foci (ACF) in rat colon, dietary pterostilbene; assay type: in vivo, male F344 rats; conditions: for inhibition at 40 ppm: Rattus norvegicus, feed or water, 40 ppm in diet, compared to control diet
Experimental: Weanling male F344 rats were obtained from Charles River Breeding Laboratories (Kingston, N.Y.). All experimental diets were purchased from Research Diets (New Brunswick, N.J.) and stored at 4° C. All animals were randomly distributed by weight into control and experimental groups and housed in plastic cages with filter tops (three per cage) under controlled conditions of a 12-hr light and dark cycle, 50% humidity and 21° C. temperature. Animals had access to food and water at all times. Food cups were replenished with fresh diet two times weekly.
as §1, §2
For the ACF analysis, the colons were fixed flat between two pieces of filter paper in 10% buffered formalin for a minimum of 24 hr. The colons were then cut into 2-cm segments, starting at the anus. They were stained with 0.2% methylene blue in Krebs-Ringer solution for 5-10 min, and were then placed mucosal side up on a microscope slide and observed through a light microscope. ACF were counted and recorded according to standard procedures that are being used routinely in the laboratory. […] The parameters used to assess the aberrant crypts were their occurrence and multiplicity. Crypt multiplicity was determined as the number of crypts in each focus. Multicrypts were categorized as containing up to four or more aberrant crypts/focus.
Total number of ACF/colon and multiple aberrant crypts/focus were counted and the data were analyzed by Student's t-test. The PCNA labeling index (PI) was calculated as the [(number of positive cells)/(total number of cells)]×100 for each field which is averaged to get the PI for each section. The significance of treatment between the groups was analyzed by Student's t-Test.

B16M-F10 melanoma cells = conditions: intravenous administration to mice; cited from earlier work
phospho-STAT3 = experiment: Western blot of phospho-STAT3 in cytokine-treated HT-29 cells; assay type: cell-based, human
Experimental: as §3, §4
The significance of the JAK-STAT pathway in HT-29 cells was evaluated by probing for phospho-STAT3. Cytokines activated the STAT pathway, as shown by a strong induction of phospho-STAT3.

[3] = 40 ppm in AIN-76A diet, 8 weeks after second AOM treatment, Mean ± S.D. (n = 9)

SMILES: COc1cc(/C=C/c2ccc(O)cc2)cc(OC)c1 [pterostilbene, (E)-4-(3,5-dimethoxystyryl)phenol]
- TNF-α mRNA induction by the cytokine mixture (TNF-α mRNA): weak inhibitory effect
- overt toxicity [1]: did not cause any overt toxicity
- body weights compared to control diet ([1]; throughout the study): comparable
- ERK1/2 activation by cytokines (ERK1/2): did not block
- activation of p38 by cytokines (p38): strongly inhibited
- cyclin D1 level (cyclin D1): effective in reducing
- >4 ACF/colon [2, 3]: 25.1 ± 5.6
- ACF/colon [2, 3]: 117 ± 12
- inhibition at 40 ppm ([2]; read-out: inhibition of multiple aberrant crypts/focus): 29%
- inhibition at 40 ppm ([2]; read-out: inhibition of total ACF/colon): 57%
- metastatic growth of B16M-F10 melanoma cells in the liver (B16M-F10 melanoma cells): inhibited metastatic growth
- level of induced phospho-STAT3 (phospho-STAT3): did not alter
